Assay results: patent US7700765B2, “DNA minor groove binding compounds” (University of Strathclyde, priority 2001, dated 2010)
Values after ≈ are worked out from the molar mass of the structure shown.

Legend:
Klebs. aerogenes = test: Minimum inhibitory concentration (MIC) against microorganisms; format: cell-based; conditions: Klebsiella aerogenes; Organism: Klebs. aerogenes
Description: (§1) Minimum inhibitory concentrations (MICs) against microorganisms (e.g. S. Aureus, E. coli, S. faecalis, P. vulgaris, MRSA, Aspergillus niger, Candida albicans, Klebs. aerogenes, Ent. cloacae, Mycobacterium fortuitum or Aspergillus nidulans) for compounds of the invention may be measured using procedures such as those described in A. J. Drummond and R. D. Waigh “The development of microbiological methods for phytochemical screening” Recent Res. Devel. Phytochem. 4, 143-152 (2000).

P. vulgaris = test: as above; format: cell-based; conditions: Proteus vulgaris; Organism: P. vulgaris
Description: as §1

S. aureus = test: as above; format: cell-based; conditions: Staphylococcus aureus; Organism: S. aureus
Description: as §1

MRSA = test: as above; format: cell-based; conditions: Staphylococcus aureus; Organism: MRSA
Description: as §1

Ent. cloacae = test: as above; format: cell-based; conditions: Enterobacter cloacae; Organism: Ent. cloacae
Description: as §1

E. coli = test: as above; format: cell-based; conditions: Escherichia coli; Organism: E. coli
Description: as §1

S. faecalis = test: as above; format: cell-based; conditions: Enterococcus faecalis; Organism: S. faecalis
Description: as §1

[1] = system: NFκB protein-DNA complexes; test: NFκB DNA-binding assay (gel shift) with macrophage nuclear extracts; format: biochemical, Murine; conditions: 1 μL of a 1 mM solution, final volume 10 μL; nuclear protein from macrophages exposed to LPS
Procedure: Murine macrophages (obtained and cultured as described in Cell. Signal. 11(7), 491 (1999), hereinafter referred to as “Reference 1”, the disclosures of which document are hereby incorporated by reference) were exposed to vehicle (see Reference 1) or 1 μg/mL lipopolysaccharide (LPS; the active component of gram-negative endotoxin and a strong activator of the Nuclear Factor kappa B (NFκB) pathway; the particular LPS being obtained from Salmonella minnesota) for 1 hour and nuclear extracts prepared by standard procedures (see Brit. J. Pharmacol. 134, 393 (2001), hereinafter referred to as “Reference 2”, the disclosures of which document are hereby incorporated by reference).
Aliquots of compounds (1 μL of a 1 mM solution) were incubated with 1 μL (0.035 pmol) of a ^32P-labelled 20 bp double-stranded DNA oligonucleotide (representing the consensus binding sequence for NFκB proteins (see Reference 2 and Brit. J. Pharmacol. 134, 1629-1638 (2001), the disclosures of which latter document are hereby incorporated by reference)) for 30 min at room temperature. […] The formation of NFκB protein-DNA complexes and potential inhibition of complex formation in the presence of the above compounds was detected by autoradiography. […]

Aspergillus niger = test: Minimum inhibitory concentration (MIC) against microorganisms; format: cell-based; conditions: Organism: Aspergillus niger
Description: as §1

Mycobacterium fortuitum = test: as above; format: cell-based; conditions: Mycolicibacterium fortuitum; Organism: Mycobacterium fortuitum
Description: as §1

Aspergillus nidulans = test: as above; format: cell-based; conditions: Organism: Aspergillus nidulans
Description: as §1

Candida albicans = test: as above; format: cell-based; conditions: Organism: Candida albicans
Description: as §1

[2] = system: double-stranded DNA decamer CGACTAGTCG (SEQ ID NO:3); test: Capillary electrophoresis ligand-DNA binding study; conditions: drug to DNA ratio up to 4:1
Description: (§2) Typically, ligand binding results in a change in migration time of the DNA and sometimes a change in peak shape.
(§3) The following are shown in FIGS. 1-6: • (a) the experimental conditions, including the DNA sequence(s); • (b) the result of sequential addition of ligand; and • (c) the structure of the ligand being investigated. Key to FIGS. 1 to 6: • r0=electropherogram in the absence of drug • rX=(where X is 0.5, 1, 2, 3 or 4) electropherogram in the presence of drug, where the drug:DNA ratio (in terms of concentration) is X:1
This ratio corresponds to the binding ratio.

DNA = conditions: binding to DNA; read-out: dissociation constants; cited from earlier work
[3] = system: double-stranded DNA oligonucleotide AAATTATATTAT (SEQ ID NO:1); test: Capillary electrophoresis ligand-DNA binding study; conditions: AAATTATATTAT versus GGGCCGCGCCGC
Description: Capillary electrophoresis was used to study of ligand-DNA binding (see: (i) Hamdan, I. I.; Skellern, G. G.; and Waigh, R. D. “Separation of pd(GC)12 from pd(AT)12 by free solution capillary electrophoresis”, J. Cromatogr. A. 806, 165-168 (1998); (ii) Hamdan, I. I.; Skellern, G. G.; and Waigh, R. D. “Use of capillary electrophoresis in the study of ligand-DNA interactions”, Nucleic Acids Research 26, 3053-3058 (1998); (iii) Hamdan, I. I.; Skellern, G. G.; and Waigh, R. D. “Ligand binding to oligonucleotides” Methods in Molecular Biology, Vol. 163, “Capillary Electrophoresis of Nucleic acids”, Vol 2, pages 379-391, K. R. Mitchelson and J. Cheng Eds., Humana Press, New Jersey, (2000)).
as §2, §3
This ratio corresponds to the binding ratio. […]

| SMILES | MIC (Klebs. aerogenes) | MIC (P. vulgaris) | MIC (S. aureus) | MIC (MRSA) | MIC (Ent. cloacae) | MIC (E. coli) | MIC (S. faecalis) | effect on LPS-stimulated NFκB-DNA binding activity [1] | MIC (Aspergillus niger) | MIC (Mycobacterium fortuitum) | MIC (Aspergillus nidulans) | MIC (Candida albicans) | affinity for the sequence [2] | Kd (DNA) | AT selectivity [3] |
| --- | --- | --- | --- | --- | --- | --- | --- | --- | --- | --- | --- | --- | --- | --- | --- |
| CC1(C)S[C@@H]2[C@H](NC(=O)[C@H](N)c3ccc(O)cc3)C(=O)N2[C@H]1C(=O)O [Amoxicillin, reference compound] | 32.3 µM (≈ 11.8 µg/mL) | 8.1 µM (≈ 2.96 µg/mL) | 0.49 µM (≈ 0.179 µg/mL) | 16.1 µM (≈ 5.88 µg/mL) | 4 µM (≈ 1.46 µg/mL) | 2 µM (≈ 0.731 µg/mL) | 0.49 µM (≈ 0.179 µg/mL) | – | – | – | – | – | – | – | – |
| CC(C)n1cc(NC(=O)c2cc(NC=O)cn2C)cc1C(=O)Nc1cc(C(=O)NCCCN(C)C)n(C)c1 [Example 2, N-[5-({[5-({[3-(Dimethylamino)propyl]amino}carbonyl)-1-methyl-1H-pyrrol-3-yl]amino}carbonyl)-1-isopropyl-1H-pyrrol-3-yl]-4-(formylamino)-1-methyl-1H-pyrrole-2-carboxamide] | – | – | – | – | – | – | – | little effect | – | – | – | – | – | – | – |
| CC(C)c1sc(NC(=O)c2cc(NC(=O)c3cc(NC=O)cn3C)cn2C)nc1C(=O)NCCCN(C)C [Example 3, N-[3-(Dimethylamino)propyl]-2-({[4-({[4-(formylamino)-1-methyl-1H-pyrrol-2-yl]carbonyl}amino)-1-methyl-1H-pyrrol-2-yl]carbonyl}amino)-5-isopropyl-1,3-thiazole-4-carboxamide] | 76.2 µM (≈ 41.4 µg/mL) | 152 µM (≈ 82.6 µg/mL) | 4.7 µM (≈ 2.55 µg/mL) | 38.1 µM (≈ 20.7 µg/mL) | 76.2 µM (≈ 41.4 µg/mL) | > 152 µM | 9.5 µM (≈ 5.16 µg/mL) | – | 76.1 µM (≈ 41.3 µg/mL) | 19 µM (≈ 10.3 µg/mL) | 38.1 µM (≈ 20.7 µg/mL) | 76.1 µM (≈ 41.3 µg/mL) | – | – | – |
| CC(C)c1sc(NC(=O)c2cc(NC=O)cn2C)nc1C(=O)Nc1cc(C(=O)NCCCN(C)C)n(C)c1 [Example 7, N-[5-({[3-(Dimethylamino)propyl]amino}carbonyl)-1-methyl-1H-pyrrol-3-yl]-2-({[4-(formylamino)-1-methyl-1H-pyrrol-2-yl]carbonyl}amino)-5-isopropyl-1,3-thiazole-4-carboxamide] | 38.1 µM (≈ 20.7 µg/mL) | 152 µM (≈ 82.7 µg/mL) | 4.8 µM (≈ 2.6 µg/mL) | 19.1 µM (≈ 10.4 µg/mL) | 9.5 µM (≈ 5.16 µg/mL) | > 152 µM | 9.5 µM (≈ 5.16 µg/mL) | – | 38.1 µM (≈ 20.7 µg/mL) | 19 µM (≈ 10.3 µg/mL) | 9.5 µM (≈ 5.16 µg/mL) | 38.1 µM (≈ 20.7 µg/mL) | – | – | – |
| CC(C)CCn1cc(NC(=O)c2ccc3[nH]c(C(=O)Nc4cc(C(=O)Nc5cc(C(=O)NCCCN6CCOCC6)n(C)c5)n(CCC(C)C)c4)cc3c2)cc1C(=O)Nc1cc(C(=O)NCCCN2CCOCC2)n(C)c1 [Example 17, N^2,N^5-Bis[1-isopentyl-5-({[1-methyl-5-({[3-(4-morpholinyl)propyl]amino}-carbonyl)-1H-pyrrol-3-yl]amino}carbonyl)-1H-pyrrol-3-yl]-1H-indole-2,5-dicarboxamide] | 38.9 µM (≈ 41.2 µg/mL) | 77.7 µM (≈ 82.2 µg/mL) | 19.4 µM (≈ 20.5 µg/mL) | > 77.7 µM | > 77.7 µM | > 77.7 µM | 77.7 µM (≈ 82.2 µg/mL) | – | > 77.7 µM | > 77.7 µM | 77.7 µM (≈ 82.2 µg/mL) | > 77.7 µM | – | – | – |
| CC(C)c1sc(NC(=O)c2cc(NC(=O)c3ccc4c(c3)CCc3cc(C(=O)Nc5cc(C(=O)Nc6nc(C(=O)NCCCN(C)C)c(C(C)C)s6)n(C)c5)ccc3-4)cn2C)nc1C(=O)NCCCN(C)C [Example 28, N^2,N^7-Bis[5-({[4-({[3-(dimethylamino)propyl]amino}carbonyl)-5-isopropyl-1,3-thiazol-2-yl]amino}carbonyl)-1-methyl-1H-pyrrol-3-yl]-9,10-dihydro-2,7-phenanthrenedicarboxamide] | > 80.3 µM | > 80.3 µM | 80 µM (≈ 81.4 µg/mL) | 10 µM (≈ 10.2 µg/mL) | > 80.3 µM | > 80.3 µM | 10 µM (≈ 10.2 µg/mL) | – | > 80.3 µM | 40.1 µM (≈ 40.8 µg/mL) | 20.1 µM (≈ 20.4 µg/mL) | > 80.3 µM | – | – | – |
| OC(Cn1cncn1)(Cn1cncn1)c1ccc(F)cc1F [Fluconazole, reference compound] | – | – | – | – | – | – | – | – | > 327 µM | – | 40.8 µM (≈ 12.5 µg/mL) | 81.6 µM (≈ 25 µg/mL) | – | – | – |
| [H]/N=C(/N)N[C@H]1[C@H](O)[C@@H](O)[C@H](O[C@@H]2O[C@@H](C)[C@](O)(C=O)[C@H]2O[C@@H]2O[C@@H](CO)[C@H](O)[C@@H](O)[C@@H]2NC)[C@@H](N/C(N)=N\[H])[C@@H]1O [Streptomycin, reference compound] | – | – | – | – | – | – | – | – | – | 21.5 µM (≈ 12.5 µg/mL) | – | – | – | – | – |
| Cn1cc(NC(=O)c2cc(NC(=O)c3cc(NC=O)cn3C)cn2C)cc1C(=O)NCCC(=N)N [distamycin, reference compound] | – | – | – | – | – | – | – | – | – | – | – | – | no affinity | ~10 µM | – |
| Cn1cc(NC(=O)c2cc(NC(=O)CN=C(N)N)cn2C)cc1C(=O)NCCC(=N)N [netropsin] | – | – | – | – | – | – | – | – | – | – | – | – | – | ~10 µM | AT selective |
